Measurements published in patent publication US20230104487A1, “11-(4-CHLOROPHENYL)-4-(2,3-DIHYDRO-1H-INDOLE-1-CARBONYL)-3,11-DIMETHYL-5,10,DIOXATRICYCLO[7.4.0.0,2,6,]TRIDECA-1,3,6,8-TETRAEN-13-ONE AND DERIVATIVES AS DESTABILIZER OF CRY1 FOR THE TREATMENT OF CIRCADIAN RHYTHM ASSOCIATED DISEASES AND DISORDERS” (KOC UNIVERSITESI, priority 2019, published 2023).
Entries after “also recorded” stand apart in the source; their conditions may differ.

Columns and labels:
CRY1 = biological target: T1, CRY1 (Mus musculus, UniProt P97784); test: Pull-down assay with biotinylated molecule, CRY1-HIS-MYC; type: binding; conditions: 50 μM bFORMULA I, 100 μM FORMULA I competitor
T1 sequence (P97784 1-606): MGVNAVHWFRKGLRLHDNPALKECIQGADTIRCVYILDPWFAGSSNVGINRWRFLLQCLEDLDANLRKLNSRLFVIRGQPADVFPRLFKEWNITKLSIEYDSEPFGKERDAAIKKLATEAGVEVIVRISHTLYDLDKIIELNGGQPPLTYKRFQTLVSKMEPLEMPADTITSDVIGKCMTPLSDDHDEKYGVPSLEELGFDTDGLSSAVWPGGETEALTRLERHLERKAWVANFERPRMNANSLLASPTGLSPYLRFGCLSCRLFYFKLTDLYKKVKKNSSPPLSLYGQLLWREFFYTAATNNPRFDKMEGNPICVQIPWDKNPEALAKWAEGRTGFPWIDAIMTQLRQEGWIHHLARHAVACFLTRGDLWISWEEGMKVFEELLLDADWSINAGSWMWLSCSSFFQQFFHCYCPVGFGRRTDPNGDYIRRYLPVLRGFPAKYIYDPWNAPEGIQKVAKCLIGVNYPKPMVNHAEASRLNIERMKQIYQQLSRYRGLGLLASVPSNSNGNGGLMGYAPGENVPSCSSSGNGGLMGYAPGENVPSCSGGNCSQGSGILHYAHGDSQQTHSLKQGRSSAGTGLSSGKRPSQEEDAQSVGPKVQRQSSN
Experimental: 10 μg of Cry1-pcDNA4, Cry2-pcDNA4 or Cry1-T5-pcDNA4 plasmids expressing His and Myc at the C-terminal of CRYs were transfected to HEK293T cell. After 48 h of transfection cells were harvested and lysed in lysis buffer (50 mM Tris pH 7.4, 2 mM EDTA, 1 mM MgCl2, 0.2% NP-40 (v/v), 0.1% sodium deoxycholate (w/v), 1 mM sodium orthovanadate, 1 mM sodium fluoride, and protease inhibitor cocktail (Thermo Scientific)). Lysates were incubated for 10 minutes on ice then mixed gently and incubated for another 10 minutes on ice. Then lysate was centrifuged for 10 minutes at 7000 g at 4° C. 5% of the supernatant was kept for input analysis. Remaining supernatant was divided to three and mixed with 2×binding buffer (100 mM Tris-HCl pH 7.4, 300 mM NaCl, 0.2% NP-40 (v/v), 2 mM sodium orthovanadate, 2 mM sodium fluoride, and protease inhibitor) with 1:1 ratio, incubated with rotation having either of these: a) DMSO, b) biotinylated molecule, c) biotinylated molecule and the competitor for 2 h. During this period NeutrAvidin Agarose resin (Thermo Scientific) was equilibrated with lysis buffer by mixing for 5 minutes via rotation at 4° C. three times. After each mix period, resins were centrifuged at 2500 g at 4° C. for 2 minutes and supernatant was discarded. […] Pulled-down samples were analyzed via western blot.

Per2 = Per2 mRNA in mouse liver (qPCR); type: in vivo; conditions: 25 and 50 mg/kg i.p., 6 h
Experimental: FIGS. 5A-5G are an illustration of FORMULA I decreased the nuclear CRY1 in mice liver. FORMULA I (25 mg/kg or 50 mg/kg) or vehicle intraperitoneally administered to C57BL/6J mice. 6 h after the treated mice were sacrificed (n=3). […] FIGS. 5A-5B show an effect of FORMULA I in WCL. FIG. 5C-5D show an effect of FORMULA I in cytosolic fraction. FIGS. 5E-5F show an effect of FORMULA I in nuclear fraction of muce liver. […] (Data represent the mean±SEM, n=3 (with duplicates in RT-PCR) *: p<0.05 versus control by student t-test).
QIAGEN RNeasy Mini Kit was used to isolate the mRNA. Protocol provided by the manufacturer was followed. On-column DNase treatment was performed with the DNase enzyme provided with the kit. […] Quantity of RNA was determined by Nanodrop 2000 (Thermo Scientific). […] For quantitative real time PCR (qRT-PCR) analysis cDNAs were further diluted 5-fold (1:5). mRNA expression levels were calculated by qRT-PCR with the SYBR Green. […] 10 seconds denaturation, 57 to 62° C. for 20 seconds annealing (the degree is determined by primer type) and 72° C. for 30 seconds of elongation, 35 cycles. […]
Since CRYs are stabilized and degraded differently in cytosolic and nuclear compartments, we further analyzed the level of CRY1 in the cytosolic and nuclear fraction of the mouse liver. […]

Cc1c(C(=O)N2CCc3ccccc32)oc2ccc3c(c12)C(=O)CC(C)(c1ccc(Cl)cc1)O3 (centres unmarked) [FORMULA I, 11-(4-chlorophenyl)-4-(2,3-dihydro-1H-indole-1-carbonyl)-3,11-dimethyl-5,10,dioxatricyclo[7.4.0.0,2,6,]trideca-1,3,6,8-tetraen-13-one]
physical binding to CRY1 (pull-down) (CRY1): physically binds to CRY1; also recorded: binds to PHR of CRY1
Per2 mRNA level in liver (Per2): significantly increased; also recorded: increased the mRNA level of Per2
